Data published in the kinase profiling compilation of Christmann-Franck et al. (2016).

Columns and labels:
Assay in all cases: Caliper, Mobility shift assay off-chip
PRKCA (human) = PRKCA (human) (UniProt P17252)
SRC (human) = SRC (human) (UniProt P12931)
RPS6KA4 KD1 KD2 (human) = RPS6KA4 KD1 KD2 (human) (UniProt O75676)
PRKCZ (human) = PRKCZ (human) (UniProt Q05513)
GSK3B (human) = GSK3B (human) (UniProt P49841)
MAPK14 (human) = MAPK14 (human) (UniProt Q16539)
AKT3 (human) = AKT3 (human) (UniProt Q9Y243)
FGFR3 (human) = FGFR3 (human) (UniProt P22607)
KDR (human) = KDR (human) (UniProt P35968)
IGF1R (human) = IGF1R (human) (UniProt P08069)
BRSK2 (human) = BRSK2 (human) (UniProt Q8IWQ3)
IKBKB (human) = IKBKB (human) (UniProt O14920)
MAPKAPK3 (human) = MAPKAPK3 (human) (UniProt Q16644)
[1] = tested on: FGFR2 (human), P21802 [N549H]
ABL2 (human) = ABL2 (human) (UniProt P42684)
MAPK3 (human) = MAPK3 (human) (UniProt P27361)
INSR (human) = INSR (human) (UniProt P06213)
SGK3 (human) = SGK3 (human) (UniProt Q96BR1)
PRKD2 (human) = PRKD2 (human) (UniProt Q9BZL6)
[2] = tested on: ABL1 (human), P00519 [T315I]
PIM1 (human) = PIM1 (human) (UniProt P11309)
MAPK12 (human) = MAPK12 (human) (UniProt P53778)
MARK2 (human) = MARK2 (human) (UniProt Q7KZI7)
HCK (human) = HCK (human) (UniProt P08631)
PRKCB1 (human) = PRKCB1 (human) (UniProt P05771)
MAPKAPK5 (human) = MAPKAPK5 (human) (UniProt Q8IW41)
SGK1 (human) = SGK1 (human) (UniProt O00141)
DCLK2 (human) = DCLK2 (human) (UniProt Q8N568)
MARK3 (human) = MARK3 (human) (UniProt P27448)
BRSK1 (human) = BRSK1 (human) (UniProt Q8TDC3)
PIM2 (human) = PIM2 (human) (UniProt Q9P1W9)
RPS6KB1 (human) = RPS6KB1 (human) (UniProt P23443)
CHEK1 (human) = CHEK1 (human) (UniProt O14757)
PRKACA (human) = PRKACA (human) (UniProt P17612)

DCLK2 (human), sequence (Q8N568 whole entry, looked up): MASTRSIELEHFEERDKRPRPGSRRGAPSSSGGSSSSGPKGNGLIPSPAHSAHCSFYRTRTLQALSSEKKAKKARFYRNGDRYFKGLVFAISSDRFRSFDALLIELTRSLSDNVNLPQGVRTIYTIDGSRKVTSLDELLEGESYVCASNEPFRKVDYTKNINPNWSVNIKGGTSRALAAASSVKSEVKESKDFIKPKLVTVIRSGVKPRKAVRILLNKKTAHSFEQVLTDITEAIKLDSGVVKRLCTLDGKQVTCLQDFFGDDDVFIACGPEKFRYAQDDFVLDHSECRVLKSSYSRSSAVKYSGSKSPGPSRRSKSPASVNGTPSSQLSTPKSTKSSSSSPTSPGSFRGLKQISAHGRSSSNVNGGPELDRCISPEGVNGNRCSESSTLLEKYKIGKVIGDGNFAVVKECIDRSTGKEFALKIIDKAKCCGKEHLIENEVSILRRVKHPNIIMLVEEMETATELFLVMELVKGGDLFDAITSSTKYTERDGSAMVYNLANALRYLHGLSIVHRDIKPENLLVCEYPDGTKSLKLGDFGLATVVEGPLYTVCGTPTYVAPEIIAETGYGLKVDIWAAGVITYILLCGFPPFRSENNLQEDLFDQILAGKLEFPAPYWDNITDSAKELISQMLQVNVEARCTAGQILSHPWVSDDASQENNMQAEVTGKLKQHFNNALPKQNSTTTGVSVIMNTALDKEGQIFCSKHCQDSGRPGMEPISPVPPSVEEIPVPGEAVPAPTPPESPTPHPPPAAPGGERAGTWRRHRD
PRKD2 (human), sequence (Q9BZL6 whole entry, looked up): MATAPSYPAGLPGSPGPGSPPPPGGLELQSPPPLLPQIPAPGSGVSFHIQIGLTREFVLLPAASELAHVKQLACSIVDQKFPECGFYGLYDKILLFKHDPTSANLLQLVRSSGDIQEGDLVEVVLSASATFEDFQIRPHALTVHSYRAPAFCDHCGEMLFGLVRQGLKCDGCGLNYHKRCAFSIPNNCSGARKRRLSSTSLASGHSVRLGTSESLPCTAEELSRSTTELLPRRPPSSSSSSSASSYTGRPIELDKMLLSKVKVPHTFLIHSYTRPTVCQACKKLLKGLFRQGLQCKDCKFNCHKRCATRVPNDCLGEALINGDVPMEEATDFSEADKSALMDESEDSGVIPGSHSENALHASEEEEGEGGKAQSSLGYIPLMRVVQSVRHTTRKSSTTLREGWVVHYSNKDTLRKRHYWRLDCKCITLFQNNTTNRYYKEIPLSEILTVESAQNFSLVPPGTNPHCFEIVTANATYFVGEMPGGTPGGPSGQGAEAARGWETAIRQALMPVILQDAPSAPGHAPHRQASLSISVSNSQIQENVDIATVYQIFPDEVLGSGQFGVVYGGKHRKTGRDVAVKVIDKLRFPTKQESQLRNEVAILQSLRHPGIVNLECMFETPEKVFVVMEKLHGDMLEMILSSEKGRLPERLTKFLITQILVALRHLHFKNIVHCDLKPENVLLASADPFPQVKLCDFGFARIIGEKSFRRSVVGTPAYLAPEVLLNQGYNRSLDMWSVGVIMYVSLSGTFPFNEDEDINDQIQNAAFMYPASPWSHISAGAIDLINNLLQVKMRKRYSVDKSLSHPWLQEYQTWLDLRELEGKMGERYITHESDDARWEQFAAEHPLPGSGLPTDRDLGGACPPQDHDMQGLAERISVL
PIM1 (human), sequence (P11309 whole entry, looked up): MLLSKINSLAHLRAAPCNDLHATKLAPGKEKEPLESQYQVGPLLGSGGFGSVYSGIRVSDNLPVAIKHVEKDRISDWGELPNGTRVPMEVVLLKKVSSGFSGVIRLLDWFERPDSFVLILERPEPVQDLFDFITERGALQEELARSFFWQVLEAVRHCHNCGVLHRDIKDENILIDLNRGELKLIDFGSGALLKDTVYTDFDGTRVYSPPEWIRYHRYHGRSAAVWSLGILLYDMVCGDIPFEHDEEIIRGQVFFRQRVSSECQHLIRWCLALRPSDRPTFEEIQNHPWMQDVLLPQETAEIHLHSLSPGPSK
SRC (human), sequence (P12931 whole entry, looked up): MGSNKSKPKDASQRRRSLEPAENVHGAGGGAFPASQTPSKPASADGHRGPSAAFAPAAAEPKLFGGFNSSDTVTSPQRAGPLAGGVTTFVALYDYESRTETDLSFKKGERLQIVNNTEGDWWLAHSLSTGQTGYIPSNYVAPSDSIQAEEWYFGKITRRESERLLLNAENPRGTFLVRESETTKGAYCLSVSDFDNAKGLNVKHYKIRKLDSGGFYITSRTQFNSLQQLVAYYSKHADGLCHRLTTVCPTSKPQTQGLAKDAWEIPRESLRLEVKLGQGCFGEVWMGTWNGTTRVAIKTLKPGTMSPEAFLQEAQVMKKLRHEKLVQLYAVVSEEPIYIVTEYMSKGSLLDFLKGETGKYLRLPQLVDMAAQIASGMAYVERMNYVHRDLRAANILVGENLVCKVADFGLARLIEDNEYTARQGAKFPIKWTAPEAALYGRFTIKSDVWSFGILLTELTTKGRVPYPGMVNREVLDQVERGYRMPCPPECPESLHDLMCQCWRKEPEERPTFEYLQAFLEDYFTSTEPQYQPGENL
RPS6KB1 (human), sequence (P23443 whole entry, looked up): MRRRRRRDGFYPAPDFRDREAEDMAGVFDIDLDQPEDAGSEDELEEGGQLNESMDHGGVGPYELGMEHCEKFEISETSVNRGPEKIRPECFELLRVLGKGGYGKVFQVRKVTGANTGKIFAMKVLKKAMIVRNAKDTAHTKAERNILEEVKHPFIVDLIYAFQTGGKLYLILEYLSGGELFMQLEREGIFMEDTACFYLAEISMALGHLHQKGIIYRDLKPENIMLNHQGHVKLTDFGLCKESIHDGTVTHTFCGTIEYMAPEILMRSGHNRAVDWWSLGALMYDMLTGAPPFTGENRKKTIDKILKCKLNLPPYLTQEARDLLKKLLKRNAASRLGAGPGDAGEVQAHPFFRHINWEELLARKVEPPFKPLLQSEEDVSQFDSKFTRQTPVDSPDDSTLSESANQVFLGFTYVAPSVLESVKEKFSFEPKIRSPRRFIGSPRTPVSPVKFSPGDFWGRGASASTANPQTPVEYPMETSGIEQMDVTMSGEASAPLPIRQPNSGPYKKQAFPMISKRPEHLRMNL
GSK3B (human), sequence (P49841 whole entry, looked up): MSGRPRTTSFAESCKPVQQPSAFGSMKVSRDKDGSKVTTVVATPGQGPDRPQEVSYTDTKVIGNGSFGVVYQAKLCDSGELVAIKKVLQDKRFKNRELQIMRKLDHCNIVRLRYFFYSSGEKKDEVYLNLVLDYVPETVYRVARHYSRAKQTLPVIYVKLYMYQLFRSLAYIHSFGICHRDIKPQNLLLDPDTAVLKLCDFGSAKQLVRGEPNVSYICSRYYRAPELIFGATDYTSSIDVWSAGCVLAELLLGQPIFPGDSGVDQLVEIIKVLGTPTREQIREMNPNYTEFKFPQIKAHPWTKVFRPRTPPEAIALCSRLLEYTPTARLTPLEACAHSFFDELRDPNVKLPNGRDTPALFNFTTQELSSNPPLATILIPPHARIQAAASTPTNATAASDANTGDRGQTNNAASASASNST
MARK3 (human), sequence (P27448 whole entry, looked up): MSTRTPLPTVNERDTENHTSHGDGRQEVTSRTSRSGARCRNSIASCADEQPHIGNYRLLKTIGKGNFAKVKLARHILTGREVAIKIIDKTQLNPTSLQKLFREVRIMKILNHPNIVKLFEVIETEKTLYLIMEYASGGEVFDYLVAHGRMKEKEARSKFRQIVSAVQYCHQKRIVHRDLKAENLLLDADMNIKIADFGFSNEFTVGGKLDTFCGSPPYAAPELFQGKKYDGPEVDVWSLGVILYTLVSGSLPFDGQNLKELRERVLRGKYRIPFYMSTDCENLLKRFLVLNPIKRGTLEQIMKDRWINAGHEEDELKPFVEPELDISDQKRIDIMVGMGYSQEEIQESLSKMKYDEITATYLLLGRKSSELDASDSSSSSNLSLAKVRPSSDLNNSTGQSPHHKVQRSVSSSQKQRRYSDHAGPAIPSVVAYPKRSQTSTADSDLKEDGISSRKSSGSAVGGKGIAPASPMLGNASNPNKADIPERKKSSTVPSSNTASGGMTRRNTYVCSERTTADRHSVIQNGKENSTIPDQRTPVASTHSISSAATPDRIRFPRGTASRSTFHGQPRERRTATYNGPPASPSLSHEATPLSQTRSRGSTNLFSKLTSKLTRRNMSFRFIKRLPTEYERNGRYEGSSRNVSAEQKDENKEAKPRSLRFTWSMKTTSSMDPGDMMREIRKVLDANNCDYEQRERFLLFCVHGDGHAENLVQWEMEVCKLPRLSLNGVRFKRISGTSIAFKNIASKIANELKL
RPS6KA4 KD1 KD2 (human), sequence (O75676 whole entry, looked up): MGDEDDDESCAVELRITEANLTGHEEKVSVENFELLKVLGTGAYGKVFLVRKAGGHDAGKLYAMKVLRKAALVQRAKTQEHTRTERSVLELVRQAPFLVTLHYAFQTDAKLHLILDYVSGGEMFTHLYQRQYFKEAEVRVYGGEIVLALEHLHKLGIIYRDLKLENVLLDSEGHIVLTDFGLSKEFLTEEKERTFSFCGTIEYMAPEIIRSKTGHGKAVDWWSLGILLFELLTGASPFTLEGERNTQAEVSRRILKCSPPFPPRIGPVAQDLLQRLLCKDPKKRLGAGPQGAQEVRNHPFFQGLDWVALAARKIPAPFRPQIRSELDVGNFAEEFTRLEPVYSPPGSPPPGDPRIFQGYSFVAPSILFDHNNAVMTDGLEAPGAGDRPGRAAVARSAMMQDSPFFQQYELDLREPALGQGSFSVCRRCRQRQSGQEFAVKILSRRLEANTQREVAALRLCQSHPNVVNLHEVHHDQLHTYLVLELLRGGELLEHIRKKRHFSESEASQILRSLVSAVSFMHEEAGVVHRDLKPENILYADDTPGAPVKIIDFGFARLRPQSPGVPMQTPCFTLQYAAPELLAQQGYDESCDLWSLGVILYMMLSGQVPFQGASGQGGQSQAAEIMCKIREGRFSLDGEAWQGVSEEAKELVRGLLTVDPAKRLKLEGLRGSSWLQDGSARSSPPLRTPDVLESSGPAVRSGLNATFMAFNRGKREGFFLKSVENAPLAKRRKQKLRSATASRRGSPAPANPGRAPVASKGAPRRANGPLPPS

With `CN(c1ccc2ccc3ncc(-c4cnn(C)c4)cc3c(=O)c2c1)S(=O)(=O)NCc1ccccn1` the inhibition (PRKCA (human); compound 0.1 µM) was 0.1%, the inhibition (PRKCA (human); compound 1.0 µM) was -10.6% and the inhibition (SRC (human); compound 0.1 µM) was -3.2%. It also gave an inhibition (SRC (human); compound 1.0 µM) of 14.2%, an inhibition (RPS6KA4 KD1 KD2 (human); compound 0.1 µM) of -2.2% and an inhibition (RPS6KA4 KD1 KD2 (human); compound 1.0 µM) of 7.4%. For the same compound, the inhibition (PRKCZ (human); compound 0.1 µM) was 1.7%, the inhibition (PRKCZ (human); compound 1.0 µM) was 3.7% and the inhibition (GSK3B (human); compound 0.1 µM) was -6.8%. It also gave an inhibition (GSK3B (human); compound 1.0 µM) of 4.8%, an inhibition (MAPK14 (human); compound 0.1 µM) of -4.5% and an inhibition (MAPK14 (human); compound 1.0 µM) of 1.9%. It also gave an inhibition (AKT3 (human); compound 0.1 µM) of 6.2%, an inhibition (AKT3 (human); compound 1.0 µM) of 5.2% and an inhibition (FGFR3 (human); compound 0.1 µM) of 26.3%. For the same compound, the inhibition (FGFR3 (human); compound 1.0 µM) was 81%, the inhibition (KDR (human); compound 0.1 µM) was 33.2% and the inhibition (KDR (human); compound 1.0 µM) was 93.1%. For the same compound, the inhibition (IGF1R (human); compound 0.1 µM) was -12.2%, the inhibition (IGF1R (human); compound 1.0 µM) was -0.8% and the inhibition (BRSK2 (human); compound 0.1 µM) was -0.7%. The inhibition (BRSK2 (human); compound 1.0 µM) was 6.6%, the inhibition (IKBKB (human); compound 0.1 µM) was 10% and the inhibition (IKBKB (human); compound 1.0 µM) was 18.6%. It also gave an inhibition (MAPKAPK3 (human); compound 0.1 µM) of -0.1%, an inhibition (MAPKAPK3 (human); compound 1.0 µM) of -2.3% and an inhibition ([1]; compound 0.1 µM) of 16%. The inhibition ([1]; compound 1.0 µM) was 57.6%, the inhibition (ABL2 (human); compound 0.1 µM) was -2.4% and the inhibition (ABL2 (human); compound 1.0 µM) was 18%. For the same compound, the inhibition (MAPK3 (human); compound 0.1 µM) was 0.9%, the inhibition (MAPK3 (human); compound 1.0 µM) was -7.3% and the inhibition (INSR (human); compound 0.1 µM) was 3.4%. The inhibition (INSR (human); compound 1.0 µM) was -0.3%, the inhibition (SGK3 (human); compound 0.1 µM) was -5.3% and the inhibition (SGK3 (human); compound 1.0 µM) was 1.1%. For the same compound, the inhibition (PRKD2 (human); compound 0.1 µM) was 5.7%, the inhibition (PRKD2 (human); compound 1.0 µM) was -9.6% and the inhibition ([2]; compound 0.1 µM) was 3.3%. The inhibition ([2]; compound 1.0 µM) was 41.1%, the inhibition (PIM1 (human); compound 0.1 µM) was -2.7% and the inhibition (PIM1 (human); compound 1.0 µM) was 2.1%. For the same compound, the inhibition (MAPK12 (human); compound 0.1 µM) was -6%, the inhibition (MAPK12 (human); compound 1.0 µM) was 0.4% and the inhibition (MARK2 (human); compound 0.1 µM) was -3.7%. For the same compound, the inhibition (MARK2 (human); compound 1.0 µM) was 12.6%, the inhibition (HCK (human); compound 0.1 µM) was 9.4% and the inhibition (HCK (human); compound 1.0 µM) was 14.6%. It also gave an inhibition (PRKCB1 (human); compound 0.1 µM) of -7.7%, an inhibition (PRKCB1 (human); compound 1.0 µM) of 8.8% and an inhibition (MAPKAPK5 (human); compound 0.1 µM) of 10.5%. It also gave an inhibition (MAPKAPK5 (human); compound 1.0 µM) of 3%, an inhibition (SGK1 (human); compound 0.1 µM) of -0.4% and an inhibition (SGK1 (human); compound 1.0 µM) of 6.4%. The inhibition (DCLK2 (human); compound 0.1 µM) was 8.6%, the inhibition (DCLK2 (human); compound 1.0 µM) was 4.1% and the inhibition (MARK3 (human); compound 0.1 µM) was -1.8%. It also gave an inhibition (MARK3 (human); compound 1.0 µM) of 5.3%, an inhibition (BRSK1 (human); compound 0.1 µM) of 3.3% and an inhibition (BRSK1 (human); compound 1.0 µM) of 0.5%. It also gave an inhibition (PIM2 (human); compound 0.1 µM) of 1.2%, an inhibition (PIM2 (human); compound 1.0 µM) of 5.1% and an inhibition (RPS6KB1 (human); compound 0.1 µM) of -1%. The inhibition (RPS6KB1 (human); compound 1.0 µM) was -6.2%, the inhibition (CHEK1 (human); compound 0.1 µM) was 3.6% and the inhibition (CHEK1 (human); compound 1.0 µM) was 2.6%. For the same compound, the inhibition (PRKACA (human); compound 0.1 µM) was -11.5% and the inhibition (PRKACA (human); compound 1.0 µM) was -3.3%.
